Measured values from ChEMBL document CHEMBL1201862, “PubChem BioAssay data set” (2004).
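Assay format: 96-well plates, 48-hour exposure. GI50 is the concentration that inhibits growth by half.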 Calls of active or inactive are those of the source. Cut-off read from the data, not from the text of the source: active = GI50 up to about 1.1 µM and inactive = higher. Peptide text beside a SMILES is read from it. * marks the point of attachment. Boc = CC(C)(C)OC(=O)*; OBn = c1ccc(CO*)cc1

Assays:
Assay in all cases: NCI tumour cell line growth inhibition, 48 h
786-0 = system: 786-0
A549 = system: A549
BT-549 = system: BT-549
HCT-116 = system: HCT-116
HL-60 = system: HL-60
HOP-62 = system: HOP-62
Hs-578T = system: Hs-578T
KM12 = system: KM12
MDA-N = system: MDA-N
NCI-H226 = system: NCI-H226
NCI-H23 = system: NCI-H23
NCI-H460 = system: NCI-H460
NCI-H522 = system: NCI-H522
NCI/ADR-RES = system: NCI/ADR-RES
OVCAR-4 = system: OVCAR-4
PC-3 = system: PC-3
RPMI-8226 = system: RPMI-8226
SF-539 = system: SF-539
SN12C = system: SN12C
A498 = system: A498

Compound	GI50 (786-0)	GI50 (A549)	GI50 (BT-549)	GI50 (HCT-116)	GI50 (HL-60)	GI50 (HOP-62)	GI50 (Hs-578T)	GI50 (KM12)	GI50 (MDA-N)	GI50 (NCI-H226)	GI50 (NCI-H23)	GI50 (NCI-H460)	GI50 (NCI-H522)	GI50 (NCI/ADR-RES)	GI50 (OVCAR-4)	GI50 (PC-3)	GI50 (RPMI-8226)	GI50 (SF-539)	GI50 (SN12C)	GI50 (A498)
c1coc(C2=Nc3cccc4cccc(c34)N2)c1	53.3 µM (inactive)	60.3 µM (inactive)	44.5 µM (inactive)	23.1 µM (inactive)	19.5 µM (inactive)	> 100 µM (inactive)	55.6 µM (inactive)	19.6 µM (inactive)	41.1 µM (inactive)	> 100 µM (inactive)	44.8 µM (inactive)	34.8 µM (inactive)	11.2 µM (inactive)	18.7 µM (inactive)	29.9 µM (inactive)	24.2 µM (inactive)	71.8 µM (inactive)	15 µM (inactive)	28.4 µM (inactive)	
O=c1[nH]c2ccccc2c2oc(-c3ccccc3)nc12	23.6 µM (inactive)	47.6 µM (inactive)	31.2 µM (inactive)	24 µM (inactive)		15.8 µM (inactive)	25.1 µM (inactive)	50.5 µM (inactive)	20.2 µM (inactive)	88.9 µM (inactive)	65.8 µM (inactive)	> 100 µM (inactive)	61.5 µM (inactive)	> 100 µM (inactive)	60.7 µM (inactive)	> 100 µM (inactive)	27.9 µM (inactive)	16.7 µM (inactive)	16.5 µM (inactive)	27 µM (inactive)
CN(C)CCCNc1ccnc2cccc([N+](=O)[O-])c12	14.1 µM (inactive)	12.8 µM (inactive)	21.8 µM (inactive)	13.7 µM (inactive)	26.7 µM (inactive)	18.1 µM (inactive)	26 µM (inactive)	12.8 µM (inactive)	17.2 µM (inactive)	15.3 µM (inactive)	5.9 µM (inactive)	6.5 µM (inactive)	7.96 µM (inactive)		6.18 µM (inactive)	14.3 µM (inactive)	27.3 µM (inactive)	15.2 µM (inactive)	15.8 µM (inactive)	15.5 µM (inactive)
O=C1/C(=C\c2cccc(Oc3ccccc3)c2)SC(c2ccccc2)N1c1cccc([N+](=O)[O-])c1 (stereo not drawn)	> 100 µM (inactive)	> 100 µM (inactive)	> 100 µM (inactive)	32.7 µM (inactive)		> 100 µM (inactive)	98.9 µM (inactive)	72.1 µM (inactive)	33.9 µM (inactive)	87.1 µM (inactive)	> 100 µM (inactive)	> 100 µM (inactive)	57.5 µM (inactive)	82.8 µM (inactive)	70.3 µM (inactive)		34.7 µM (inactive)	25.1 µM (inactive)	> 100 µM (inactive)	> 100 µM (inactive)
O=C1N=C(SC(SC2=NC(=O)C3(NN2)c2ccccc2-c2ccccc23)=C(SC2=NC(=O)C3(NN2)c2ccccc2-c2ccccc23)SC2=NC(=O)C3(NN2)c2ccccc2-c2ccccc23)NNC12c1ccccc1-c1ccccc12	9.66 µM (inactive)	6.65 µM (inactive)	6.53 µM (inactive)	5.55 µM (inactive)		> 10 µM (inactive)	> 10 µM (inactive)	9.29 µM (inactive)	5.36 µM (inactive)	2.76 µM (inactive)	7.59 µM (inactive)	3.33 µM (inactive)	4.54 µM (inactive)	3.66 µM (inactive)	8.07 µM (inactive)	4.62 µM (inactive)	3.59 µM (inactive)	> 10 µM (inactive)	6.5 µM (inactive)	
CCCC(=O)Nc1cc(/C=C/C(=O)N2CC(CCl)c3ccc([N+](=O)[O-])cc32)n(C)c1 (stereo not drawn)	62.4 µM (inactive)	58.3 µM (inactive)	4.07 µM (inactive)	56 µM (inactive)			26.8 µM (inactive)	19.5 µM (inactive)	> 100 µM (inactive)	21.8 µM (inactive)	> 100 µM (inactive)		28.8 µM (inactive)	30.7 µM (inactive)	> 100 µM (inactive)	> 100 µM (inactive)	14.5 µM (inactive)	43.4 µM (inactive)	> 100 µM (inactive)	< 0.01 µM (active)
CCOC(=O)C1=CC(C)(C(=O)OCC)Nc2c(nc(N)[nH]c2=O)N1 (stereo not drawn)	> 10 µM (inactive)	> 10 µM (inactive)	7.31 µM (inactive)	> 10 µM (inactive)		> 10 µM (inactive)	> 10 µM (inactive)	> 10 µM (inactive)	> 10 µM (inactive)	> 10 µM (inactive)	> 10 µM (inactive)	> 10 µM (inactive)	> 10 µM (inactive)	> 10 µM (inactive)	> 10 µM (inactive)	> 10 µM (inactive)	> 10 µM (inactive)	> 10 µM (inactive)	> 10 µM (inactive)	> 10 µM (inactive)
COc1cc2ncnc(NS(=O)(=O)c3cc4ccccc4s3)c2cc1OC	> 100 µM (inactive)	> 100 µM (inactive)	> 100 µM (inactive)	> 100 µM (inactive)		> 100 µM (inactive)	49.9 µM (inactive)	> 100 µM (inactive)	> 100 µM (inactive)	> 100 µM (inactive)	93.1 µM (inactive)	> 100 µM (inactive)	28.2 µM (inactive)	> 100 µM (inactive)	92.7 µM (inactive)	> 100 µM (inactive)	58.3 µM (inactive)	> 100 µM (inactive)	70.5 µM (inactive)	56.4 µM (inactive)
Cc1cc(NCCCCCCCNc2cc(C)nc3cc([N+](=O)[O-])ccc23)c2ccc([N+](=O)[O-])cc2n1	4.8 µM (inactive)	3.69 µM (inactive)	20 µM (inactive)	1.69 µM (inactive)	0.451 µM (active)	20.5 µM (inactive)	1.86 µM (inactive)	1.85 µM (inactive)	1.78 µM (inactive)	18 µM (inactive)	5.18 µM (inactive)	2.04 µM (inactive)	1.61 µM (inactive)		2 µM (inactive)	13.5 µM (inactive)	1.87 µM (inactive)	8.63 µM (inactive)	4 µM (inactive)	10.8 µM (inactive)
O=C(NC(Cc1ccccc1)(Cc1ccc(O)cn1)C(=O)O)c1ccccc1 (stereo not drawn)	> 100 µM (inactive)	> 100 µM (inactive)	> 100 µM (inactive)	58.9 µM (inactive)	16.5 µM (inactive)	> 100 µM (inactive)	> 100 µM (inactive)	> 100 µM (inactive)	> 100 µM (inactive)	83 µM (inactive)	> 100 µM (inactive)	> 100 µM (inactive)	> 100 µM (inactive)	> 100 µM (inactive)	98.6 µM (inactive)	76.4 µM (inactive)	49.3 µM (inactive)	> 100 µM (inactive)		
CNc1nc(SC)nc2c1c(N)nn2C	> 100 µM (inactive)	> 100 µM (inactive)	> 100 µM (inactive)	> 100 µM (inactive)		> 100 µM (inactive)	95.3 µM (inactive)	> 100 µM (inactive)	> 100 µM (inactive)	> 100 µM (inactive)	> 100 µM (inactive)	> 100 µM (inactive)	> 100 µM (inactive)	> 100 µM (inactive)	> 100 µM (inactive)	> 100 µM (inactive)	> 100 µM (inactive)		> 100 µM (inactive)	99.5 µM (inactive)
O=[N+]([O-])c1ccc(-n2nc3ccc4nonc4c3n2)cc1	28.1 µM (inactive)	72.1 µM (inactive)	22.7 µM (inactive)	74.6 µM (inactive)	> 100 µM (inactive)	16.6 µM (inactive)	13.3 µM (inactive)	94.8 µM (inactive)	> 100 µM (inactive)	17.8 µM (inactive)	23.7 µM (inactive)	37.3 µM (inactive)	28.8 µM (inactive)	56.1 µM (inactive)	9.08 µM (inactive)	74.3 µM (inactive)	> 100 µM (inactive)	44.8 µM (inactive)	> 100 µM (inactive)	
COP(=O)(OC)C(N)CCSC (stereo not drawn)	> 100 µM (inactive)	> 100 µM (inactive)	> 100 µM (inactive)	> 100 µM (inactive)	> 100 µM (inactive)	> 100 µM (inactive)	> 100 µM (inactive)	> 100 µM (inactive)	> 100 µM (inactive)	> 100 µM (inactive)	> 100 µM (inactive)	> 100 µM (inactive)	> 100 µM (inactive)	> 100 µM (inactive)	> 100 µM (inactive)	> 100 µM (inactive)	> 100 µM (inactive)		> 100 µM (inactive)	
Cc1sc2c(c1C)/C(=N\O)c1cccn1-2	20.1 µM (inactive)	44.5 µM (inactive)	42.1 µM (inactive)	37.6 µM (inactive)		25.3 µM (inactive)	16.9 µM (inactive)	31.6 µM (inactive)	40.6 µM (inactive)	29.7 µM (inactive)		35.1 µM (inactive)	19 µM (inactive)	53.3 µM (inactive)	44.9 µM (inactive)	29.9 µM (inactive)	37.8 µM (inactive)		38.5 µM (inactive)	24.2 µM (inactive)
CC(C)CC(NC(=O)OC(C)(C)C)C(=O)NC(CC(=O)OCc1ccccc1)C(N)=O (stereo not drawn) (Boc-Leu-Asp(OBn)-NH2; configuration not given here)	> 100 µM (inactive)	> 100 µM (inactive)	> 100 µM (inactive)	> 100 µM (inactive)			58.9 µM (inactive)	> 100 µM (inactive)	> 100 µM (inactive)	> 100 µM (inactive)	> 100 µM (inactive)		> 100 µM (inactive)	> 100 µM (inactive)	> 100 µM (inactive)	> 100 µM (inactive)		> 100 µM (inactive)	> 100 µM (inactive)	> 100 µM (inactive)
